In patent US6887867B2, “5H-2,3-benzodiazepine antagonists of excitatory amino acid receptors” (Transgenomic, Inc., priority 2000, dated 2005):
Like-named read-outs stand apart in the source and are kept apart here.

Key:
[1] = tested on: AMPA receptor; assay: Inhibition of Ca2+ influx into cortical cells stimulated with AMPA; assay type: cell-based; conditions: cortical cells stimulated with 50 μM AMPA; fluorescence readout
Experimental: Three of the antagonists disclosed herein were tested, in vitro, for inhibition of Ca^2+ influx into cortical cells stimulated with AMPA. They are 1-(4-Aminophenyl)-3,5-dihydro-4-methyl-3-acetyl-7-methoxy-5H-2,3-benzodiazepine (8) (SYM 2267), 1-(4-Aminophenyl)-3,5-dihydro-4-methyl-3-acetyl-8-methoxy-5H-2,3-benzodiazepine (21) (SYM 2268), and 1-(4-Aminophenyl)-3,5-dihydro-4-methyl-3-acetyl-7-amino-8-methoxy-5H-2,3-benzodiazepine (27) (SYM 2269), respectively. The in vitro test measures inhibition of Ca^2+ influx into cortical cells stimulated with 50 µM AMPA by the test compounds. The rationale underlying this assay is that stimulation of the cortical cells with AMPA activates AMPA receptors causing Ca^2+ influx with an increase in intracellular Ca^2+ which is then detected by measuring an increase in fluorescence. The Ca^2+ increase comes mostly from extracellular (influx of Ca^2+ through the channel into the cell), but could also come from intracellular sources (release of Ca^2+ from storage). The inhibition of the AMPA receptor function is detected by a decrease in the level of intracellular Ca^2+ and a decrease in fluorescence.

[2] = tested on: global ischemia; conditions: rat common carotid arteries model; cited from earlier work
[3] = tested on: focal ischemia; conditions: rat MCAO, cited from earlier work
[4] = tested on: MES seizures; assay: Maximal electro shock (MES) seizure model; assay type: in vivo; conditions: rats
Experimental: The extent of protection by a test compound in a seizure model is tested as described by Rogawski et al. (Epilepsy Research, 15:179-184, 1993). Male NIH Swiss mice (25-30 g) are injected ip with the test drug. The mice are subjected to a 0.2 sec, 60 Hz, 50 mA electrical stimulus delivered with corneal electrodes wetted with 0.9% saline at 15-30 min post dosing. Animals failing to show tonic hind limb extension are scored as protected. Compounds may be selected which are active in this model.
SYM 2267 was evaluated for in vivo anticonvulsant activity in the maximal electro shock (MES) model in rats.

[5] = Rotorod test; assay type: in vivo; conditions: rats, PO

COc1ccc2c(c1)C(c1ccc(N)cc1)=NN(C(C)=O)C(C)C2 (stereo not drawn) [SYM 2268, 1-(4-Aminophenyl)-3,5-dihydro-4-methyl-3-acetyl-8-methoxy-5H-2,3-benzodiazepine]
IC50 [1]: 16.6 µM

COc1cc2c(cc1N)CC(C)N(C(C)=O)N=C2c1ccc(N)cc1 (stereo not drawn) [SYM 2269, 1-(4-Aminophenyl)-3,5-dihydro-4-methyl-3-acetyl-7-amino-8-methoxy-5H-2,3-benzodiazepine]
IC50 [1]: 7.3 µM

CC1=NN=C(c2ccc(N)cc2)c2cc3c(cc2C1)OCO3 [GYKI 52466]
Efficacy in global ischemia compared with NBQX [2]: as effective as the glutamate site competitive antagonist NBQX | Reduction of cortical infarct volume ([3]; dosing delayed for one hour): 48% | Reduction of cortical infarct volume ([3]; given continuously for 2 hours just after occlusion): 68%

COc1ccc2c(c1)CC(C)N(C(C)=O)N=C2c1ccc(N)cc1 (stereo not drawn) [SYM 2267, 1-(4-Aminophenyl)-3,5-dihydro-4-methyl-3-acetyl-7-methoxy-5H-2,3-benzodiazepine]
ED50 ([4]; Rattus norvegicus, MES model, read-out: MES effective dosage (ED50)): 8.4 mg/kg | Protection from MES seizures ([4]; orally (PO), 30 mg/kg): fully protected | IC50 [1]: 26.1 µM | Sedative or toxic side effects in the rotorod test [5]: No sedative or toxic side effects were observed
